One assay addresses T1, COX-2 (Ovis aries, UniProt P79208).
T1 construct: gene PTGS2
T1 sequence (P79208 17-603): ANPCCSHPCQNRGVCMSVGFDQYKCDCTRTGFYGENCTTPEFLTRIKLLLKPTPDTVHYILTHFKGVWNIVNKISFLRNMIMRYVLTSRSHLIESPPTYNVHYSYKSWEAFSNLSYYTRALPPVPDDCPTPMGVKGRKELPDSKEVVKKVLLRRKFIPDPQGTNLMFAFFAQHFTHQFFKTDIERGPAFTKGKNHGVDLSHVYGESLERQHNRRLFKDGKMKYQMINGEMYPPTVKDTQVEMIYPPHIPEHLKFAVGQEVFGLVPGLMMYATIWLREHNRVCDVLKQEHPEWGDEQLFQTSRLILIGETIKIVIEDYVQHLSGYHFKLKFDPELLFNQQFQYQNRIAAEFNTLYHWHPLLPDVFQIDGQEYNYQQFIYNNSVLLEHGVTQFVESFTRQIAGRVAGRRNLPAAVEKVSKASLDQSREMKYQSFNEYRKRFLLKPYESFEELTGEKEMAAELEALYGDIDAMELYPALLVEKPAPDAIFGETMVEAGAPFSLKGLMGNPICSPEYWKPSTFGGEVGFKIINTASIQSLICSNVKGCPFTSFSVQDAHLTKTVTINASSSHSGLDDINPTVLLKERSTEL
The assay is described as follows: COX (ovine) inhibitor screening assay kit, PGF2α produced by SnCl2 reduction of COX-derived PGH2, read at […] nm. The assay is classed as biochemical.

The target in the next assay is T2, COX-1 (Ovis aries, UniProt P05979).
T2 construct: gene PTGS1
T2 sequence (P05979 25-600): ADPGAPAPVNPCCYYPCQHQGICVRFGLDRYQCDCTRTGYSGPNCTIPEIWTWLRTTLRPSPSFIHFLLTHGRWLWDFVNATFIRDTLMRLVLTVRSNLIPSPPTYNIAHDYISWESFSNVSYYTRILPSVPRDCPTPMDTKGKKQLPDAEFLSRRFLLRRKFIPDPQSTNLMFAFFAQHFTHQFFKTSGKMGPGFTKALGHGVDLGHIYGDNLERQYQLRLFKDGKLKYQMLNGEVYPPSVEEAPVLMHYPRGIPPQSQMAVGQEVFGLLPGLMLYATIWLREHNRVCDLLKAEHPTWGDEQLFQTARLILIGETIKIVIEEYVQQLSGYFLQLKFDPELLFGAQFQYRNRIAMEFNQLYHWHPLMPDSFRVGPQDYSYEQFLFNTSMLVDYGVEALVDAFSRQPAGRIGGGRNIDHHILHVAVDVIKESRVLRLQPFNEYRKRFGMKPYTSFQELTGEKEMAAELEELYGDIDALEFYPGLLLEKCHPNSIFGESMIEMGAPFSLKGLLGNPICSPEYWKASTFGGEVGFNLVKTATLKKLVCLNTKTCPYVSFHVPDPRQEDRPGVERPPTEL
Briefly: COX (ovine) inhibitor screening assay kit; […] inhibition at […]. It is filed as biochemical.

IC50 data for one compound are collected here from publication PMC9174266, “Isolation, characterization and biological activities of betulin from Acacia nilotica bark” (Scientific Reports, 2022).

Usually IC50 stands for the concentration needed to halve the response being measured. Low readings indicate greater potency, high ones weaker potency.

In the case of `C=C(C)[C@@H]1CC[C@]2(CO)CC[C@]3(C)[C@H](CC[C@@H]4[C@@]5(C)CC[C@H](O)C(C)(C)[C@@H]5CC[C@]43C)[C@@H]12` [AN-10], the IC50 against COX-2 is less than 1 µM; on COX-1, more than 10 µM.
